Among the data in article PMC13129536 (The Journal of Biological Chemistry, 2026) are IC50 and IC90 values, retold here.

This assay has as its system M. tuberculosis Erdman. As to the kind of experiment: Pathogenic (BSL3) tuberculosis CFU assay. To be noted: Mycobacterium tuberculosis, 96 h; for IC50: read-out: IC50 (CFU/mL at 96 hours); for IC90: read-out: IC90 (CFU/mL at 96 hours). The assay is classed as cell-based.

For `C[C@@H](O)[C@H]1C(=O)N2C(C(=O)O)=C(S[C@@H]3CN[C@H](C(=O)N(C)C)C3)[C@H](C)[C@H]12` [Meropenem, meropenem, reference compound], the IC50 worked out at 0.697 ± 0.11 µg/mL and the IC90 amounted to 1.16 ± 0.255 µg/mL.

`c1ccc(-c2nc3cc(Cc4ccc5[nH]c(-c6ccccn6)nc5c4)ccc3[nH]2)nc1` [Compound F0850-5995]: the IC50 is approximately 1.12 µM and the IC90 stood at 6.64 ± 3.86 µM.

As for `Cc1ccc(C)c(Nc2nc(NCc3ccccc3)c3ccccc3n2)c1` [Compound F0909-0124], the IC50 was approximately 8.97 µM.
